Measured values published in patent publication US6673802B2, “Compounds specific to adenosine A3 receptor and uses thereof” (OSI Pharmaceuticals, Inc., priority 2000, dated 2004).

Columns and labels:
[1] = target: A1 adenosine receptor (Homo sapiens, UniProt P30542); conditions: cited from earlier work
[2] = target: T1, human A2a receptor subtype (Homo sapiens, UniProt P29274); assay: Adenosine 2a receptor subtype competition radioligand binding ([3H]CGS-21680, HEK293 membranes); conditions: Table 13; probably % activity @ 10 μM (footnote 8)
T1 construct: purchased Receptor Biology (Beltsville, Md.) RB-HA2a
T1 sequence (P29274 whole entry): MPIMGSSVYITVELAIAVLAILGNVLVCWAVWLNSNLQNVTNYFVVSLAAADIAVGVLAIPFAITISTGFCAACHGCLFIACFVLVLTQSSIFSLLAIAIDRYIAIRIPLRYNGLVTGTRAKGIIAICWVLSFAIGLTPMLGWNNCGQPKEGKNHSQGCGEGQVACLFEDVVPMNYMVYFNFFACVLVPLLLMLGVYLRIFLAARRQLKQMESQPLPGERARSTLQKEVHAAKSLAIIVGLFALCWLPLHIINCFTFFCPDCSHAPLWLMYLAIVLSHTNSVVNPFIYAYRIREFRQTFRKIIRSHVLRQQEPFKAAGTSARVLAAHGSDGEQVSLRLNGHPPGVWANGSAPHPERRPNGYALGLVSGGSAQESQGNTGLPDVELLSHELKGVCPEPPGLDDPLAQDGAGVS

Sequence of A1 adenosine receptor (P30542 whole entry): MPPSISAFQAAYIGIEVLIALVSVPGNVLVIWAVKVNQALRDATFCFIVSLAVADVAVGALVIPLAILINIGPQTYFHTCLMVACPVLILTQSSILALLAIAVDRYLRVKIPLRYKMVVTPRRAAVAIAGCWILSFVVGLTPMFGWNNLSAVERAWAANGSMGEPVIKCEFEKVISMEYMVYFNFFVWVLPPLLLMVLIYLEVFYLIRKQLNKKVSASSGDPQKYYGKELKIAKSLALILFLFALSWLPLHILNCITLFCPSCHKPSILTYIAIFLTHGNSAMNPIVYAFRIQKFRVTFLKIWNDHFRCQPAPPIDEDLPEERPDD

| melting point | Structure (SMILES) | also measured |
| --- | --- | --- |
|  | CC(Cc1ccccc1)Nc1ncnc2c1ncn2[C@@H]1O[C@H](CO)[C@@H](O)[C@H]1O (single isomer, unassigned; (-)) [PIA, (−)-N6-(2-phenylisopropyl)-adenosine] | reported affinity [1]: approximately 50 nM |
|  | CNC(=O)NCCCNc1nc(-c2ccccc2)nc2[nH]c(C)c(C)c12 [Compound 1310] | A2a, value printed as % [2]: 76% |
| 234 to 235 °C | c1ccc(-c2nc(NCCc3cnc[nH]3)c3cc[nH]c3n2)cc1 [Compound 1720, [2-(3H-Imidazol-4-yl)-ethyl]-(2-phenyl-7H-pyrrolo[2,3-d]pyrimidin-4-yl)-amine] |  |
| 196 to 197 °C | CC(=O)NCCNc1nc(-c2ccccc2)nc2[nH]c(COc3ccccc3)cc12 [Example 17, 4-(2-acetylaminoethyl)amino-6-phenoxymethyl-2-phenyl-7H-pyrrolo[2,3d]pyrimidine] |  |
